Here are results for 30 compounds from PubChem BioAssay (NCI).

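Five compound concentrations were applied to cells in 96-well plates for 48 hours; endpoints were derived by simple linear interpolation of the resulting dose-response curve. The concentration for 50% growth inhibition is given as GI50. At the TGI there is no net growth.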

What all share (experiment): NCI anticancer screen, dose series, 48 h
In experiment [1] the test system is LOX IMVI melanoma.
The subject of experiment [2] is SK-MEL-2 melanoma.
Experiment [3] relates to OVCAR-8 ovarian.
Experiment [4] relates to NCI-H23 lung.
For experiment [5], the system named is HOP-92 NSCLC.
Experiment [6] has as its system KM12 colon.
The test system of experiment [7] is HOP-62 NSCLC.
Experiment [8] deals with MCF7 breast.
In experiment [9] the test system is NCI/ADR-RES ovarian.
Experiment [10] relates to UACC-257 melanoma.
Experiment [11] concerns HS 578T breast.

As for `[N-]=[N+]=NC(c1cn(C2CC(O)C(CO)O2)c(=O)[nH]c1=O)C(Br)I` (centres undefined), the TGI in [1], in [2], in experiment [3], in experiment [4], in experiment [5] and in experiment [6] was > 100 µM each time. The TGI in experiment [7] is > 100 µM.
Regarding `O=C(c1ccccc1)c1ccc2nc(-c3c(Cl)c(Cl)c(Cl)c(Cl)c3C(=O)Nc3ccco3)[nH]c2c1`, the TGI in experiment [1] is > 100 µM; in experiment [8], > 100 µM; in experiment [9] it was 62.4 µM; in experiment [2], 80.4 µM; in experiment [10] it was > 100 µM; in experiment [3], > 100 µM. Besides, the TGI in experiment [4], in experiment [5], in experiment [6] and in [7] was > 100 µM each time.
On to `COc1ccccc1NC(=O)CSC(N)=O`, for which the TGI in [1] was > 100 µM; in experiment [2], 61.4 µM; in experiment [10], > 100 µM; in experiment [3] it was > 100 µM; in experiment [4], > 100 µM; in experiment [5], > 100 µM. Also, the TGI in [6] is > 100 µM; in [7] it was 80.2 µM.
For the compound `C=C1C(=O)O[C@H]2[C@H]1CC/C(COC(=O)/C=C/C(=O)OC/C1=C/CC[C@@]3(C)O[C@H]3[C@H]3OC(=O)C(=C)[C@@H]3CC1)=C\CC[C@@]1(C)O[C@@H]21`, the GI50 is 1.07 µM in experiment [1]; 1.64 µM in experiment [10]; 1.53 µM in [3]; 3.22 µM in experiment [11]; 0.549 µM in experiment [5]; 5.19 µM in experiment [6]. The GI50 in experiment [7] is 5.43 µM. For the same compound, the TGI in experiment [1] was 2.4 µM; in experiment [10], 3.14 µM; in experiment [3], 3.05 µM; in experiment [11] it was > 100 µM; in [5], 1.8 µM; in [6] it was > 100 µM. Also, the TGI in experiment [7] was > 100 µM.
On to `CC(=O)c1cc(S(=O)(=O)c2ccc(O)c(C(C)=O)c2)ccc1O`, for which the TGI in experiment [1], in experiment [8], in [9], in experiment [2], in [10] and in experiment [3] was > 100 µM each time. Further, the TGI in [4], in [5], in experiment [6] and in [7] was > 100 µM in each case.
Consider `Nc1cc2ncnc(Nc3cccc(Br)c3)c2cn1`, for which the TGI in experiment [1] is > 100 µM; in experiment [9] it was > 100 µM; in experiment [2] it was 69.7 µM; in [10], > 100 µM; in experiment [3] it was > 100 µM; in [11] it was > 100 µM. Besides, the TGI in experiment [4] was > 100 µM; in experiment [5] it was > 100 µM; in experiment [6] it was 63.9 µM; in experiment [7], > 100 µM.
As to `CC(C)Oc1cc2c(cc1O)CC[C@@H]1[C@@H]2CC[C@]2(C)[C@@H](O)CC[C@@H]12`, the TGI in experiment [1] is 18.3 µM; in experiment [8], 30.3 µM; in experiment [9], 19.9 µM; in [2] it was > 24.8 µM; in experiment [10], 24.6 µM; in experiment [3], 60.6 µM. Besides, the TGI in experiment [4] was 37.4 µM; in [5], 33.5 µM; in experiment [6], 16.5 µM; in [7], 18.1 µM.
On to `CCOC(=O)CC(=O)Sc1ccccc1`, for which the TGI in experiment [1] was 26.8 µM; in experiment [2] it was 67.9 µM; in experiment [10] it was 91.4 µM; in experiment [3] it was 34.6 µM; in experiment [4] it was 70.7 µM; in experiment [5], 89.5 µM. The figures for the TGI in [6] and in [7] were > 100 µM and 65.6 µM, respectively.
For the compound `CCCCNC(=S)Nc1nc(C(=O)NNC(=S)NCc2ccccc2)cs1`, the TGI is > 100 µM in experiment [1]; > 100 µM in experiment [8]; > 100 µM in experiment [9]; > 100 µM in [2]; 83.9 µM in experiment [10]; > 100 µM in [3]. Moreover, the TGI in [4], in [6] and in experiment [7] was > 100 µM in each case.
With `c1ccc2c(c1)ccc1nc(-c3ccc4c(c3)OCO4)c3c(c12)CCC3`, the TGI in experiment [8], in [9], in [2], in [10], in experiment [3] and in experiment [11] was > 100 µM each time. Further, the TGI in experiment [4], in experiment [6] and in experiment [7] was > 100 µM each time.
`O=C1CCc2cc3c(cc21)C(C(=O)O)CC3` (centres undefined): the TGI in experiment [1], in experiment [8], in [9], in experiment [2], in [10] and in experiment [3] was > 100 µM in each case. Besides, the TGI in [11], in experiment [4], in experiment [6] and in [7] was > 100 µM in each case.
With `Cc1cccc(=O)c([O-])c1.Cc1cccc(=O)c([O-])c1.Cc1cccc(=O)c([O-])c1.Cc1cccc(=O)c([O-])c1.[Th+4]`, the TGI in [1] is > 100 µM; in experiment [2] it was 97.5 µM; in [10] it was > 63 µM; in experiment [3], > 100 µM; in [4], > 76.6 µM; in experiment [5], > 68.9 µM. For the same compound, the TGI in [6] was > 72.7 µM; in experiment [7], > 100 µM.
Consider `O=C(NCCNCCO)N/N=C/c1ccccc1`, for which the TGI in experiment [1], in [2], in [10], in [3], in [4] and in [6] was > 100 µM throughout.
For the compound `CC(=O)Nc1ccc(C(=O)N2N=C(C)/C(=C/c3ccccc3O)C2=O)cc1`, the TGI in experiment [1], in [2], in experiment [10], in experiment [3], in [4] and in experiment [6] was > 100 µM each time. Besides, in experiment [7], the TGI was > 100 µM.
Take `CCCCCCCCCCC[N+]1(Cc2ccccc2)CC2CCN(Cc3ccccc3)CC2C1` (centres undefined): the TGI in experiment [1] was found to be 1.6 µM; in experiment [8], 1.62 µM; in experiment [2], 0.724 µM; in experiment [10] it was 1.14 µM; in experiment [3], 1.5 µM; in experiment [11], 1.57 µM. Further, the TGI was found to be 1.03 µM in experiment [4], 1.62 µM in [5], 0.902 µM in experiment [6] and 2.14 µM in experiment [7].
Consider `CCn1c(O)c(C(=O)NC(C)c2ccc([N+](=O)[O-])cc2)c(=O)n(CC)c1=S` (centres undefined), for which the TGI amounted to 10.9 µM in experiment [1]; 9.19 µM in experiment [8]; 2.72 µM in experiment [2]; 16.6 µM in experiment [10]; 7.42 µM in experiment [11]; 4.63 µM in experiment [4]. Also, the TGI in experiment [5] was 8.48 µM; in experiment [6] it was 5.58 µM; in experiment [7], 6.54 µM.
As for `Oc1ccc(O)c(Sc2nnc(CCCCCCCCc3nnc(Sc4cc(O)ccc4O)o3)o2)c1`, the TGI was 94.1 µM in experiment [8]; > 100 µM in experiment [9]; > 100 µM in experiment [2]; > 100 µM in experiment [10]; > 100 µM in experiment [4]; 65.7 µM in experiment [5]. Besides, the TGI in experiment [6] and in [7] was > 100 µM in each case.
On to `CC(C)C(=O)/C=C/c1ccccc1`, for which the TGI in experiment [1], in [2], in [10], in [4], in [5] and in experiment [6] was > 100 µM in each case.
Consider `O=C1C(Cl)C(c2cccc(O)c2)N1n1cnc2ccccc2c1=O` (centres undefined), for which the TGI in experiment [1], in experiment [2], in experiment [10], in experiment [3], in experiment [4] and in experiment [7] was > 100 µM throughout.
Turning to `O=c1n(C2CCCCC2)c(=C(Cl)Cl)c(=C(Cl)Cl)n1C1CCCCC1`, the TGI in [1], in experiment [2], in experiment [10], in experiment [3], in [4] and in [6] was > 100 µM each time. In addition, the TGI in experiment [7] is > 100 µM.
Consider `COc1ccc(C[C@H]2COC(=O)[C@@H]2Cc2ccccc2)cc1OC`, for which the TGI in [1], in experiment [8], in experiment [9], in experiment [10], in experiment [3] and in [11] was > 100 µM in each case. Moreover, the TGI in experiment [4], in experiment [6] and in [7] was > 100 µM in each case.
In the case of `C/C(=C\COP(=O)(O)OP(=O)(O)O)CC/C=C(\C)CNc1ccccc1`, the TGI in [1], in experiment [8], in experiment [9], in experiment [2], in [10] and in experiment [3] was > 50 µM in each case. The TGI in experiment [11], in experiment [6] and in experiment [7] was > 50 µM in each case.
`CC(C)NCCNC(=O)c1ccccc1Nc1c(Cl)cccc1Cl`: the TGI in experiment [1] is 20.6 µM; in [10], 22.3 µM; in experiment [3], 34.4 µM; in experiment [4] it was 32 µM; in [6] it was 36 µM; in experiment [7], 25.4 µM.
For the compound `COc1ccc(C2C3=CONC3CC3CCCCC32)cc1` (centres undefined), the TGI in experiment [1], in experiment [8], in experiment [2], in experiment [10], in experiment [3] and in experiment [4] was > 100 µM throughout. For the same compound, in experiment [7], the TGI was > 100 µM.
With `COc1ccc2c3c([nH]c2c1)-c1nc2ccccc2c(=O)n1CC3`, the TGI in [8] was > 25 µM; in experiment [9] it was > 25 µM; in experiment [10], > 25 µM; in experiment [3], > 25 µM; in [11], 10.6 µM; in experiment [6], > 25 µM. For the same compound, the TGI in [7] was > 25 µM. In experiment [11], the GI50 is 1.59 µM.
For the compound `CC(=O)CCCCCCCCCCCC[C@@H]1CC[C@H](C)[C@H](O)N1`, the TGI in experiment [1], in experiment [2], in [10], in experiment [3], in experiment [4] and in experiment [5] was > 100 µM throughout. The TGI in experiment [6] and in [7] was > 100 µM in each case.
Regarding `COc1ccc(C(=O)/C=C/c2ccc(OCCCOc3ccc(/C=C/C(=O)c4ccc(OC)c(OC)c4)cc3)cc2)cc1OC`, the TGI in [8], in experiment [9], in [2], in experiment [10], in experiment [3] and in experiment [11] was > 100 µM throughout. Moreover, the TGI in [6] and in experiment [7] was > 100 µM each time.
For `O=C1c2ccccc2C2(c3ccc(Cl)cc3)N[C@@H]3CCCC[C@@H]3N12` (some centres undefined), the TGI in [1], in experiment [8], in [2], in experiment [10], in experiment [3] and in experiment [11] was > 100 µM each time. Further, the TGI in experiment [4], in experiment [5], in experiment [6] and in [7] was > 100 µM each time.
For `O=C1/C(=C/C=C/c2ccccc2)CCC1CNc1ccc(Br)cc1` (centres undefined), the TGI in [1], in [8], in experiment [10], in experiment [3], in experiment [11] and in experiment [4] was > 100 µM each time. Further, the TGI in experiment [5], in [6] and in [7] was > 100 µM in each case.
For the compound `N#CC(NNC(=O)c1ccccc1O)c1ccc(O)cc1` (centres undefined), the TGI is > 100 µM in [1]; 78.5 µM in experiment [2]; > 100 µM in experiment [10]; > 100 µM in [3]; > 100 µM in [4]; > 100 µM in [5]. Also, the TGI in [6] and in experiment [7] was > 100 µM throughout.
